In patent US6214801A, “Imidazo[1,2-a]pyridine C-nucleosides as antiviral agents” (The Regents of the University of Michigan, priority 1999, dated 2001):
Read-outs that look alike come from different tables or passages of the source.

Tests used:
[1] = test system: HIV-1; assay: HIV-1 replication, reverse transcriptase (RT) assay in CEM cells; assay type: cell-based, HIV-1 strain IIIB; settings: Table 6
Protocol: (§1) CEM cells and strain IIIB of HIV-1 were obtained through courtesy of Dr. Louis S. Kurcera, Boman Gray School of Medicine, Wake Forest University. CEM cells were grown in suspension culture and passaged through conventional procedures.
The activity of compounds against HIV-1 replication was determine by using reverse transcriptase (RT) as a marker for HIV-1. Strain IIIB of HIV-1 was grown in CEM cells maintained in suspension culture as detailed previously (see Kucera et al. AIDS Res. Human Retroviruses, 1993, Vol. 9, pp. 307-314). The assay measured the presence of HIV in supernatants of infected CEM cells by determining the amount of RT activity. Cells were grown, infected with HIV-1, and incubated in the presence of seven concentrations (one-half log10 dilutions) of the test compounds beginning at 1 or 100 μM concentration, depending on the compound to be assayed. Procedures and the RT assay were performed as detailed previously (see White et al., Antiviral Res. 1991, Vol. 16, pp. 257-266).

[2] = test system: HSV-1; assay: HSV-1 ELISA assay; assay type: cell-based, herpes simplex virus type 1, KOS strain
Protocol: (§2) KB cells (available from the American Type Culture Collection (ATCC) 12301 Parklawn Drive, […], Md. 20852 (ATCC CCL 17)), an established human cell line derived from an epidermal oral carcinoma, were grown in minimal essential medium (MEM) (Sigma) with Hanks salts (MEM(H)) supplemented with 5% fetal calf serum. Human foreskin fibroblasts (HFF cells) (provided by the University of Michigan Hospital) and African green monkey kidney cells (BSC-1) (ATTC CCL 26) cells were grown in MEM with Earl salts (MEM(E)) supplemented with 10% fetal bovine serum. Cells were passaged according to conventional procedures and as described in Shipman, C., Jr. et al. (1976) Antimicrob. Agents Chemother. Vol. 9:120 and incorporated herein by reference. Briefly, cells were passaged at 1:2 to 1:10 dilutions according to conventional procedures by using 0.05% trypsin plus 0.02% EDTA in a HEPES buffered salt solution. HFF cells were passaged onlv at 1:2 dilutions.
(§3) A plaque purified isolate, Po, of the Towne strain of HCMV was used in all experiments and was a gift of Dr. Mark Stinski, University of Iowa. The KOS strain of HSV-1 was used and was provided by Dr. Sandra K. Weller, University of Connecticut. Stock preparations of HCMV and HSV-1 were prepared and titered as known to those of skill and the art and described in Turk, S. R. et al. (1987) Antimicrob. Agents Chemother. Vol. 31:544-550 and Shipman, C., Jr., et al. (1990) J. Virol. Methods Vol. 28:101-106, each incorporated herein by reference.
Briefly, high titer HSV-1 stocks were prepared as follows. Nearly confluent monolayer cultures of KB cells were grown in 32 oz. glass bottles containing MEM(E) buffered with 25 mM HEPES and supplemented with 5% fetal bovine serum and 0.127 giliter L-arginine (VGM, virus growth medium). The cultures were infected at a low input multiplicity to reduce the formation of defective virus. After cell cytopathology reached "three to four plus", the cells were harvested by vigorous shaking, and concentrated by centrifugation (800×g for 5 min.). The resulting virus pools were stored at -760C until retrieved for use in experiments.
HSV-1 was titered using monolayer cultures of BSC-1 cells. Cells were planted at 3×10^5 cells/well using 6-well cluster dishes. MEM(E) supplemented with 10% fetal bovine serum was employed as medium. After 22-24 h, cells were 90% confluent and were inoculated in triplicate using at least three ten-fold dilutions with 0.2 ml of the virus suspension to be assayed and incubated in a humidified 4% CO2 -[…] atmosphere for one hour to permit viral adsorption. Following virus adsorption, the cell sheet was overlayed with 5 ml of MEM(E) with 5% serum plus 0.5% methocel (4000 CPS) and incubated an additional two to three days. Cells were fixed and stained with 0.1% crystal violet in 20% methanol and macroscopic plaques enumerated.
(§4) HCMV plaque reduction experiments were performed with monolayer cultures of HFF cells by a procedure similar to that referenced above for titration of the viruses and described in Devivar, R. V. et al. (1994) J. Med. Chem. Vol. 37:2942-2949. Activity of compounds against HSV-1 was evaluated using an ELISA assay.
ELISA techniques according to standard procedures were also used to determine activity against HSV-1. Drug effects were calculated as a percentage of the reduction in virus titers in the presence of each drug concentration compared to the titer obtained in the absence of drug. Ganciclovir was used as a positive control in all experiments.

[3] = test system: HCMV; assay: HCMV plaque (focus) reduction assay in HFF cells; assay type: cell-based; settings: for IC50: Human betaherpesvirus 5, HFF cells, 7 to 10 days, read-out: 50% Inhibitory Concentration IC50, Antiviral Activity, HCMV (plaque assay in HFF cells); for antiviral activity (in words): Table 5
Protocol: as §2, §3
Stock HCMV was prepared by infecting HFF cells at a multiplicity of infection (m.o.i.) of less that 0.01 plaque-forming units (p.f.u.) per cell. Cell growth medium was changed every four days until cytopathology was evident in all cells (approximately 21 days). Supernatant fluids were retained as the virus stock. Four days later, the remaining cells were disrupted by three cycles of freeze-thawing and the cell plus medium held as an additional source of virus. Storage was in liquid nitrogen.
HCMV was titered in 24-well cluster dishes which were plated to contain 5×10^4 HFF cells/well, grown as described above. When the cells were 70 to 80% confluent, 0.2 ml of the virus suspension was added per well and adsorbed as described above. At least three ten-fold dilutions of each preparation were used. Following virus adsorption, the cell sheets were overlayed with 0.5% methocel (4000 CPS) in maintenance medium [MEM(E) with 1.1 g/liter NaHCO3, 100 units/ml penicillin G, 100 μg/ml streptomycin, and 5% fetal bovine serum]. The cultures were incubated in a humidified atmosphere of 4% CO2 -96% air. Viral plaques were visible 5 to 7 days after infection using at least 10-fold magnification. Cells were fixed and stained by a 10-minute exposure to a 0.1% solution of crystal violet in 20% methanol 7 to 12 days after infection. Microscopic foci were enumerated at 20-fold magnification using a Nikon Profile Projector.
as §4
The effect of compounds of the replication of HCMV was measured using a plaque (focus) reduction assay. For the former, HFF cells in 24-well culture dishes were infected with approximately 50 p.f.u. of HCMV per well using the procedures detailed above. Compounds dissolved in growth medium were added in four to six selected concentrations to duplicate wells following virus adsorption. Following incubation at 37 °C for 7 to 10 days, cell sheets were fixed, stained and microscopic plaques were enumerated as described above. Drug effects were calculated as a percentage of reduction in number of plaques in the presence of each drug concentration compared to the number observed in the absence of drug. […]

[4] = Growth cytotoxicity in KB cells (crystal violet staining); assay type: cell-based; settings: human, two population doubling times, read-out: 50% Inhibitory Concentration IC50, Cytotoxicity, Growth (KB cells)
Protocol: as §2
(§5) Two different methods were used to evaluate cytotoxicity of the compounds. First, cytotoxicity produced in stationary HFF cells was determined by microscopical examination of cells not affected by the virus used in the plaque assay. Second the effect of compounds on KB cells during two population doubling times was determined by crystal violet staining and spectrophotometric quantitation of dye eluted from stained cells. This method has been utilized for the analysis of ganciclovir and zidovudine (See Prichard, M. N. et al. Antiviral Res. (1991) Vol. 35:1060-1065).

[5] = in vitro; assay type: cell-based, human; settings: human, hff cells
Protocol: as §2, §5

[6] = Growth cytotoxicity in CEM cells; assay type: cell-based; settings: human, read-out: 50% Inhibitory Concentration IC50, Cytotoxicity, Growth (CEM cells)
Protocol: as §1

[7] = test system: HCMV; settings: background; cited from earlier work
[8] = test system: HFF cells; assay: in vitro; assay type: cell-based, human
Protocol: as §2, §5

[9] = Human alphaherpesvirus 1; read-out: 50% Inhibitory Concentration IC50, Antiviral Activity, HSV-1 (ELISA assay)

Compound: 5-(5'-O-[(tert-Butyl)dimethylsilyl]-2',3'-O-isopropylidene-β-D-ribofuranosyl)-imidazo[1,2-a]pyridine [Compound 44]
- HIV-1 antiviral activity (in words) [1]: HIV-1 antiviral activity at non-cytotoxic concentrations

Compound: Clc1cc2nc(Cl)c(C3C=CCO3)n2cc1Cl (racemic) [Compound 26, 2,6,7-Trichloro-3-(2',3'-dideoxy-2',3'-didehydro-β-D/ L-erythro-furanosyl)-imidazo[1,2-a]pyridine]
- IC50 [2, 9]: > 100 µM
- IC50 [3]: 32 µM
- CC50 [4]: > 100 µM
- CC50 [5]: 222 µM
- CC50 [6]: > 100 µM

Compound: OC[C@H]1O[C@@H](n2c(Br)nc3cc(Cl)c(Cl)cc32)[C@H](O)[C@@H]1O [BDCRB, 2-bromo-5,6-dichloro-1-(2'-β-D-ribofuranosyl)-benzimidazole]
- antiviral activity of known compounds (in words) [7]: useful against HCMV infections

Compound: Clc1ccc2nc(Cl)cn2c1 [Compound 12, 2,6-Dichloro-imidazo[1,2-a]pyridine]
- IC50 [2, 9]: > 100 µM
- IC50 [3]: > 100 µM
- CC50 [4]: > 100 µM
- CC50 [5]: > 100 µM

Compound: Clc1ccn2cc(Cl)nc2c1 [Compound 15, 2,7-Dichloro-imidazo[1,2-a] pyridine]
- IC50 [2, 9]: > 100 µM
- IC50 [3]: > 100 µM
- CC50 [4]: > 100 µM
- CC50 [5]: > 100 µM

Compound: Clc1cn2cc(Cl)c(Cl)cc2n1 [Compound 16, 2,6,7-Trichloro-imidazo[1,2-a]pyridine]
- IC50 [2, 9]: > 100 µM
- IC50 [3]: > 100 µM
- CC50 [4]: > 100 µM
- CC50 [5]: > 100 µM

Compound: Clc1cn2cc(Cl)c(Cl)c(Cl)c2n1 [Compound 18, 2,6,7,8-Tetrachloro-imidazo[1,2-a]pyridine]
- IC50 [2, 9]: > 100 µM
- IC50 [3]: > 100 µM
- CC50 [4]: > 100 µM
- CC50 [5]: > 100 µM

Compound: OC[C@H]1O[C@@H](c2c(Cl)ccc3nc(Cl)cn23)[C@H](O)[C@@H]1O [Compound 36, 2,6-Dichloro-5-(β-D-ribofuranosyl)imidazo[1,2-a]pyridine]
- IC50 [2, 9]: > 100 µM
- IC50 [3]: > 100 µM
- CC50 [4]: > 100 µM
- CC50 [5]: > 100 µM

Compound: OC[C@H]1O[C@H](c2c(Cl)ccc3nc(Cl)cn23)[C@H](O)[C@@H]1O [Compound 38, 2,6-Dichloro-5-(α-D-ribofuranosyl)imidazo[1,2-a]pyridine]
- IC50 [2, 9]: > 100 µM
- IC50 [3]: > 100 µM
- CC50 [4]: > 100 µM
- CC50 [5]: > 100 µM

Compound: OC[C@H]1O[C@@H](c2c(Cl)c(Cl)cc3nc(Cl)cn23)[C@H](O)[C@@H]1O [Compound 42, 2,6,7-Trichloro-5-(β-D-ribofuranosyl)imidazo[1,2-a]pyridine]
- IC50 [2, 9]: > 100 µM
- IC50 [3]: > 100 µM
- CC50 [4]: > 100 µM
- CC50 [5]: > 100 µM

Compound: OC[C@H]1O[C@H](c2c(Cl)c(Cl)cc3nc(Cl)cn23)[C@H](O)[C@@H]1O [Compound 43, 2,6,7-Trichloro-5-(α-D-ribofuranosyl)imidazo[1,2-a]pyridine]
- IC50 [2, 9]: > 100 µM
- IC50 [3]: > 100 µM
- CC50 [4]: > 100 µM
- CC50 [5]: > 100 µM

Compound: OC[C@H]1O[C@@H](c2cccc3nccn23)[C@H](O)[C@@H]1O [Compound 45, 5-(β-D-Ribofuranosyl)imidazo[1,2-a]pyridine]
- IC50 [2, 9]: > 100 µM
- IC50 [3]: > 100 µM
- CC50 [4]: > 100 µM
- CC50 [5]: > 100 µM

Compound: O[C@@H]1[C@@H](c2c(Cl)nc3cc(Cl)c(Cl)cn23)OC[C@@H]1O [Compound +28, 2,6,7-Trichloro-3-(β-L-erythrofuranosyl)imidazo[1,2-a]pyridine]
- IC50 [2, 9]: > 100 µM
- IC50 [3]: > 100 µM
- CC50 [4]: > 100 µM
- CC50 [5]: > 100 µM

Compound: O[C@@H]1[C@H](O)CO[C@@H]1c1c(Cl)nc2cc(Cl)c(Cl)cn12 [Compound +29, 2,6,7-trichloro-3-(α-D-erythrofuranosyl)imidazo[1,2-α]pyridine]
- IC50 ([2]; Human alphaherpesvirus 1, read-out: 50% Inhibitory Concentration IC50, Antiviral Activity, HSV-1 (ELISA assay)): 80 µM
- IC50 [3]: 4.9 µM
- antiviral activity (in words) [3]: excellent antiviral activity
- CC50 [4]: > 100 µM
- CC50 [5]: > 100 µM
- cytotoxicity (in words) [8]: very low cytotoxicity

Compound: O[C@@H]1[C@H](O)CO[C@H]1c1c(Cl)nc2cc(Cl)c(Cl)cn12 [Compound -28, 2,6,7-Trichloro-3-(β-D-erythrofuranosyl)imidazo[1,2-a]pyridine]
- IC50 [2, 9]: > 100 µM
- IC50 [3]: > 100 µM
- CC50 [4]: > 100 µM
- CC50 [5]: > 100 µM

Compound: O[C@H]1[C@@H](O)CO[C@H]1c1c(Cl)nc2cc(Cl)c(Cl)cn12 [Compound -29, 2,6,7-dichloro-3-(α-L-erythrofuranosyl)imidazo[1,2-α]pyridine]
- IC50 [2, 9]: > 100 µM
- IC50 [3]: 17 µM
- CC50 [4]: > 100 µM
- CC50 [5]: > 100 µM

Compound: O[C@H]1[C@@H](O)CO[C@H]1c1c(Cl)nc2cc(Cl)c(Cl)cn12 [Compound -29]
- antiviral activity (in words) [3]: excellent antiviral activity
- cytotoxicity (in words) [8]: very low cytotoxicity

Compound: Nc1nc(O)c2ncn(COC(CO)CO)c2n1 [DHPG, ganciclovir, reference compound]
- IC50 [3]: 7.4 µM
- CC50 [5]: > 100 µM
